Like-named read-outs stand apart in the source and are kept apart here.
Experiments:
[1] = system: glyphosate resistant Conyza canadensis (L.) (ERICA), horseweed; experiment: Postemergence herbicide evaluation, growth of Conyza canadensis (ERICA); assay type: in vivo; settings: Erigeron canadensis, post-emergence, percent reduction in plant size relative to untreated control, read-out: Ave. ERICA; for pest or weed control at 280 g/ha: 280 g ae/ha; for pest or weed control at 560 g/ha: 560 g ae/ha
[2] = system: Amaranthus rudis (AMATA), tall water hemp; experiment: Postemergence herbicide evaluation, growth of Amaranthus rudis (AMATA); assay type: in vivo; settings: Amaranthus tuberculatus, post-emergence, percent reduction in plant size relative to untreated control, read-out: Ave. AMATA; for pest or weed control at 280 g/ha: 280 g ae/ha; for pest or weed control at 560 g/ha: 560 g ae/ha
[3] = system: Abutilon theophrasti (ABUTH), velvetleaf; experiment: Postemergence herbicide evaluation, growth of Abutilon theophrasti (ABUTH); assay type: in vivo; settings: Abutilon theophrasti, post-emergence, percent reduction in plant size relative to untreated control, read-out: AVE. ABUTH; for pest or weed control at 280 g/ha: 280 g ae/ha; for pest or weed control at 560 g/ha: 560 g ae/ha
[4] = Volatility of compounds measured by thermogravimetric analysis (TGA); assay type: physicochemical
[5] = system: weeds (ABUTH, AMATA, AMBEL, CHEAL, ERICA); experiment: Postemergence herbicide evaluation, overall average % weed control across ABUTH, AMATA, AMBEL, CHEAL, ERICA; assay type: in vivo; settings: post-emergence, average over the five weeds, read-out: Overall Ave % Weed Control; for pest or weed control at 280 g/ha: 280 g ae/ha; for pest or weed control at 560 g/ha: 560 g ae/ha
[6] = system: Chenopodium album (CHEAL), common lambsquarters; experiment: Postemergence herbicide evaluation, growth of Chenopodium album (CHEAL); assay type: in vivo; settings: Chenopodium album, post-emergence, percent reduction in plant size relative to untreated control, read-out: Ave. CHEAL; for pest or weed control at 280 g/ha: 280 g ae/ha; for pest or weed control at 560 g/ha: 560 g ae/ha
[7] = system: Ambrosia artemisiifolia (AMBEL), common ragweed; experiment: Postemergence herbicide evaluation, growth of Ambrosia artemisiifolia (AMBEL); assay type: in vivo; settings: Ambrosia artemisiifolia, post-emergence, percent reduction in plant size relative to untreated control, read-out: AVE. AMBEL; for pest or weed control at 280 g/ha: 280 g ae/ha; for pest or weed control at 560 g/ha: 560 g ae/ha

SMILES | pest or weed control at 280 g/ha ([1]; 168 h, 7 DAA) | pest or weed control at 560 g/ha ([1]; 168 h, 7 DAA) | pest or weed control at 280 g/ha ([1]; 336 h, 14 DAA) | pest or weed control at 560 g/ha ([1]; 336 h, 14 DAA) | pest or weed control at 280 g/ha ([1]; 504 h, 21 DAA) | pest or weed control at 560 g/ha ([1]; 504 h, 21 DAA) | pest or weed control at 280 g/ha ([2]; 168 h, 7 DAA) | pest or weed control at 560 g/ha ([2]; 168 h, 7 DAA) | pest or weed control at 280 g/ha ([2]; 336 h, 14 DAA) | pest or weed control at 560 g/ha ([2]; 336 h, 14 DAA) | pest or weed control at 280 g/ha ([2]; 504 h, 21 DAA) | pest or weed control at 560 g/ha ([2]; 504 h, 21 DAA) | pest or weed control at 280 g/ha ([3]; 168 h, 7 DAA) | pest or weed control at 560 g/ha ([3]; 168 h, 7 DAA) | pest or weed control at 280 g/ha ([3]; 336 h, 14 DAA) | pest or weed control at 560 g/ha ([3]; 336 h, 14 DAA) | pest or weed control at 280 g/ha ([3]; 504 h, 21 DAA) | pest or weed control at 560 g/ha ([3]; 504 h, 21 DAA) | pest or weed control at 280 g/ha ([5]; 168 h, 7 DAA) | pest or weed control at 560 g/ha ([5]; 168 h, 7 DAA) | further results
O=C(COc1ccc(Cl)cc1Cl)O/N=C/c1ccc(/C=N/OC(=O)COc2ccc(Cl)cc2Cl)cc1 [Compound B3, (1,1′)-4-(-((2-(2,4-Dichlorophenoxy)acetoxy)imino)methyl)benzaldehyde-O-(2-(2,4-dichlorophenoxy)acetyl) oxime] | 55% | 65% | 78% | 80% | 85% | 80% | 60% | 70% | 58% | 68% | 58% | 68% | 33% | 60% | 13% | 58% | 12% | 58% | 47% | 62% | TGA Data (rate of weight loss, volatility) [4]: 0.8 µg/min; pest or weed control at 280 g/ha ([5]; 336 h, 14 DAA): 52%; pest or weed control at 560 g/ha ([5]; 336 h, 14 DAA): 65%; pest or weed control at 280 g/ha ([5]; 504 h, 21 DAA): 53%; pest or weed control at 560 g/ha ([5]; 504 h, 21 DAA): 66%; pest or weed control at 280 g/ha ([6]; 168 h, 7 DAA): 65%; pest or weed control at 560 g/ha ([6]; 168 h, 7 DAA): 68%; pest or weed control at 280 g/ha ([6]; 336 h, 14 DAA): 68%; pest or weed control at 560 g/ha ([6]; 336 h, 14 DAA): 70%; pest or weed control at 280 g/ha ([6]; 504 h, 21 DAA): 68%; pest or weed control at 560 g/ha ([6]; 504 h, 21 DAA): 70%; pest or weed control at 280 g/ha ([7]; 168 h, 7 DAA): 23%; pest or weed control at 560 g/ha ([7]; 168 h, 7 DAA): 48%; pest or weed control at 280 g/ha ([7]; 336 h, 14 DAA): 45%; pest or weed control at 560 g/ha ([7]; 336 h, 14 DAA): 50%; pest or weed control at 280 g/ha ([7]; 504 h, 21 DAA): 45%; pest or weed control at 560 g/ha ([7]; 504 h, 21 DAA): 53%
O=C(COc1ccc(Cl)cc1Cl)ON(Cc1ccccc1)Cc1ccccc1 [Compound A14, N, N-Dibenzyl-O-(2-(2,4-dichlorophenoxy)acetyl)hydroxylamine] | 43% | 40% | 50% | 50% | 43% | 40% | 63% | 55% | 50% | 48% | 53% | 43% | 38% | 28% | 23% | 20% | 13% | 15% | 51% | 44% | TGA Data (rate of weight loss, volatility) ([4]; 70° C.): 0.4 (70° C.) μg/min; pest or weed control at 280 g/ha ([5]; 336 h, 14 DAA): 51%; pest or weed control at 560 g/ha ([5]; 336 h, 14 DAA): 46%; pest or weed control at 280 g/ha ([5]; 504 h, 21 DAA): 47%; pest or weed control at 560 g/ha ([5]; 504 h, 21 DAA): 39%; pest or weed control at 280 g/ha ([6]; 168 h, 7 DAA): 60%; pest or weed control at 560 g/ha ([6]; 168 h, 7 DAA): 58%; pest or weed control at 280 g/ha ([6]; 336 h, 14 DAA): 68%; pest or weed control at 560 g/ha ([6]; 336 h, 14 DAA): 63%; pest or weed control at 280 g/ha ([6]; 504 h, 21 DAA): 70%; pest or weed control at 560 g/ha ([6]; 504 h, 21 DAA): 63%; pest or weed control at 280 g/ha ([7]; 168 h, 7 DAA): 50%; pest or weed control at 560 g/ha ([7]; 168 h, 7 DAA): 40%; pest or weed control at 280 g/ha ([7]; 336 h, 14 DAA): 63%; pest or weed control at 560 g/ha ([7]; 336 h, 14 DAA): 50%; pest or weed control at 280 g/ha ([7]; 504 h, 21 DAA): 58%; pest or weed control at 560 g/ha ([7]; 504 h, 21 DAA): 33%

Reference: US20260042731A1, “(2,4-DICHLOROPHENOXY)ACETIC ACID ANALOGS” (CORTEVA AGRISCIENCE LLC, priority 2022, published 2026)
